From patent US10479784B2, “Substituted pyrazin-2-amines as inhibitors of ATR kinase” (Vertex Pharmaceuticals Incorporated, priority 2008, dated 2019)

Target: full-length ATR (Homo sapiens (Human), UniProt Q13535)
Test: ATR Inhibition Assay (radioactive-phosphate incorporation)
Format: biochemical
Conditions: read-out: ATR Ki
Procedure: Compounds were screened for their ability to inhibit ATR kinase using a radioactive-phosphate incorporation assay. Assays were carried out in a mixture of 50 mM Tris/HCl (pH 7.5), 10 mM MgCl2 and 1 mM DTT. Final substrate concentrations were […] [γ-33P]ATP (3mCi 33P ATP/mmol ATP, Perkin Elmer) and 800 μM target peptide ([…]).
Assays were carried out at 25° C. in the presence of 5 nM full-length ATR. An assay stock buffer solution was prepared containing all of the reagents listed above, with the exception of ATP and the test compound of interest. […] The plate was pre-incubated for 10 minutes at 25° C. and the reaction initiated by addition of 15 μL [γ-33P]ATP (final concentration 10 μM).
The reaction was stopped after […] by the addition of 30 μL 0.1M phosphoric acid containing 2 mM ATP. A multiscreen phosphocellulose filter 96-well plate (Millipore, Cat no. MAPHN0B50) was pretreated with 100 μL 0.2M phosphoric acid prior to the addition of 45 μL of the stopped assay mixture. […] After drying, 100 μL Optiphase ‘SuperMix’ liquid scintillation cocktail (Perkin Elmer) was added to the well prior to scintillation counting (1450 Microbeta Liquid Scintillation Counter, Wallac).
After removing mean background values for all of the data points, Ki(app) data were calculated from non-linear regression analysis of the initial rate data using the Prism software package (GraphPad Prism version 3.0cx for Macintosh, GraphPad Software, San Diego Calif., USA).

Sequence of full-length ATR (Q13535 whole entry): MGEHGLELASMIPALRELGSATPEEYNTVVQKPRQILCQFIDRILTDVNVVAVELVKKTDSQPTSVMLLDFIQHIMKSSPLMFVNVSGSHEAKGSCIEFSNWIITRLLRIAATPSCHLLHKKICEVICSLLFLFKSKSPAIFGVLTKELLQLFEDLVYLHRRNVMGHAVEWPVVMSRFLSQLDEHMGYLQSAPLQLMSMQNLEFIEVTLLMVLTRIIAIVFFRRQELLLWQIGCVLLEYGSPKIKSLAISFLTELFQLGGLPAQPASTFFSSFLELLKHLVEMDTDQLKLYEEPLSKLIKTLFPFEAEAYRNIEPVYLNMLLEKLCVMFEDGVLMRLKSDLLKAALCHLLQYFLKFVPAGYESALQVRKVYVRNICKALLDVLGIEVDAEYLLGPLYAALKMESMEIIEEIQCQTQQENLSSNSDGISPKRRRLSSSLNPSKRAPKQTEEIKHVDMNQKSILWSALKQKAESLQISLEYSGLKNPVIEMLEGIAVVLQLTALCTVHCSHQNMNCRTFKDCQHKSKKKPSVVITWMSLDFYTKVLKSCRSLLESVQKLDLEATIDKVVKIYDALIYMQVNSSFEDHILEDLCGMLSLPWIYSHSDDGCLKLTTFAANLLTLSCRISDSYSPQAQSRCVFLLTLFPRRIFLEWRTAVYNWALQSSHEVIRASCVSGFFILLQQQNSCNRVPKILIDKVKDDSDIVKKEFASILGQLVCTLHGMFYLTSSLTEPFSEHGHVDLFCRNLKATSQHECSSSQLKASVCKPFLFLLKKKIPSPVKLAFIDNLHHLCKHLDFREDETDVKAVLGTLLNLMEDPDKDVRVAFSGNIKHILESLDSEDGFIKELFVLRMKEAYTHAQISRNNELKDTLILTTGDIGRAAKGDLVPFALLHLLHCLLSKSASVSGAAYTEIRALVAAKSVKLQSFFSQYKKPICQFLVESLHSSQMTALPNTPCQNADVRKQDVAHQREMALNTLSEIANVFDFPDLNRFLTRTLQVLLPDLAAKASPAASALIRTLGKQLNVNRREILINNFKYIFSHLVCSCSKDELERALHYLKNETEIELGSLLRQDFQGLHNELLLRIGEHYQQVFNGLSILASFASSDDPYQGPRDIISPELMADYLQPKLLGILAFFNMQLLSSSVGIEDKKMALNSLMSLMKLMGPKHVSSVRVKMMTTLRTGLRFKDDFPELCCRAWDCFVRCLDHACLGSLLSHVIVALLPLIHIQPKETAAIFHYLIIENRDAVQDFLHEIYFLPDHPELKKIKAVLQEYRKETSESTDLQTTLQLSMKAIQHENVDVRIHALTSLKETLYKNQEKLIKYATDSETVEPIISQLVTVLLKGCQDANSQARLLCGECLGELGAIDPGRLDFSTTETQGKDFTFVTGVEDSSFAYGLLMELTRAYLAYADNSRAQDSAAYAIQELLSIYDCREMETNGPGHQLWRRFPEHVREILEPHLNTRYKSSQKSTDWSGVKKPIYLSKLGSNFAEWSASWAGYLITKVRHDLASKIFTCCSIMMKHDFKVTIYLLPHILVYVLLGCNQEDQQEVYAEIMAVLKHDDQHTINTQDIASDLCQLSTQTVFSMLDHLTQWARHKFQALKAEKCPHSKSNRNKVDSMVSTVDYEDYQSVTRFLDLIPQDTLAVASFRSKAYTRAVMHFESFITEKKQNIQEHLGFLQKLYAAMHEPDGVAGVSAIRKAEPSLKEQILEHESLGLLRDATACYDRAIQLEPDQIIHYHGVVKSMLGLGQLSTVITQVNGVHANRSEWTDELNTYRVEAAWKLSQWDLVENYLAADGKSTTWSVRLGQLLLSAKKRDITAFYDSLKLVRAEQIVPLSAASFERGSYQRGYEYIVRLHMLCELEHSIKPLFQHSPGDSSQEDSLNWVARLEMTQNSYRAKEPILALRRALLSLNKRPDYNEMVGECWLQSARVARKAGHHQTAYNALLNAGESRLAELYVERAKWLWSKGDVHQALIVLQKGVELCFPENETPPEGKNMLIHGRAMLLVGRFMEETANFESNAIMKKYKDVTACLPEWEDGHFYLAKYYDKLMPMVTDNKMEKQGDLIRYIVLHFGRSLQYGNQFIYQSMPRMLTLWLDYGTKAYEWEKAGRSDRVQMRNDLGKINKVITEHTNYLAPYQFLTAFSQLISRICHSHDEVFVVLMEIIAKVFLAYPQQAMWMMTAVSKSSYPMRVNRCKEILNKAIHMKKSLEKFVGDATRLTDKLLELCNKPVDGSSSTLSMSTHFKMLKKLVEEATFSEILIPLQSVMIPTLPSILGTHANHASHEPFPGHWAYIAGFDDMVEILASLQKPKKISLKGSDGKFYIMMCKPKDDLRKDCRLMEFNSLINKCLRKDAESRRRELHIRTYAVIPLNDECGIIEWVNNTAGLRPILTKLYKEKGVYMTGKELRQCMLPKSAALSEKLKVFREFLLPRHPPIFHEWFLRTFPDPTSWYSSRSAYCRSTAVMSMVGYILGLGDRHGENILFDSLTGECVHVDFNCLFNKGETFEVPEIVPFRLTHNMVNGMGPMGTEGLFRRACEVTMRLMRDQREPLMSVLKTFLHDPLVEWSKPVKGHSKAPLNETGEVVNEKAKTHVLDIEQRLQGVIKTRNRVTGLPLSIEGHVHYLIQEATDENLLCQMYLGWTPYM

Structure (SMILES)	Ki
COCCN(C)C(=O)c1ccc(-c2cnc(N)c(C(=O)Nc3ccccc3)n2)cc1 [Compound I-45, 3-amino-6-(4-((2-methoxyethyl)(methyl)carbamoyl)phenyl)-N-phenylpyrazine-2-carboxamide]	10 to 100 nM
Nc1ncc(-c2ccc(C(=O)NCCN3CCCC3)cc2)nc1C(=O)Nc1ccccc1 [Compound I-46, 3-amino-N-phenyl-6-(4-(2-(pyrrolidin-1-yl)ethylcarbamoyl)phenyl) pyrazine-2-carboxamide]	100 to 5000 nM
Nc1ncc(-c2ccc(C(=O)NC3CCOCC3)cc2)nc1C(=O)Nc1ccccc1 [Compound I-47, 3-amino-N-phenyl-6-(4-(tetrahydro-2H-pyran-4-ylcarbamoyl)phenyl)pyrazine-2-carboxamide]	10 to 100 nM
Nc1ncc(-c2ccc(C(=O)NCCN3CCCCC3)cc2)nc1C(=O)Nc1ccccc1 [Compound I-49, 3-amino-N-phenyl-6-(4-(2-(piperidin-1-yl)ethylcarbamoyl)phenyl) pyrazine-2-carboxamide]	100 to 5000 nM
Nc1ncc(-c2ccc(C(=O)NC3CC3)cc2)nc1C(=O)Nc1ccccc1 [Compound I-51, 3-amino-6-(4-(cyclopropylcarbamoyl)phenyl)-N-phenylpyrazine-2-carboxamide]	10 to 100 nM
CN(C)CCN(C)C(=O)c1cccc(-c2cnc(N)c(C(=O)Nc3ccccc3)n2)c1 [Compound I-52, 3-amino-6-(3-((2-(dimethylamino)ethyl)(methyl)carbamoyl)phenyl)-N-phenylpyrazine-2-carboxamide]	100 to 5000 nM
Nc1ncc(-c2cccc(C(=O)NCCN3CCCCC3)c2)nc1C(=O)Nc1ccccc1 [Compound I-61, 3-amino-N-phenyl-6-(3-(2-(piperidin-1-yl)ethylcarbamoyl)phenyl) pyrazine-2-carboxamide]	100 to 5000 nM
CN1CCC(NC(=O)c2ccc(-c3cnc(N)c(C(=O)Nc4ccccc4)n3)cc2)CC1 [Compound I-64, 3-amino-6-(4-(1-methylpiperidin-4-ylcarbamoyl)phenyl)-N-phenylpyrazine-2-carboxamide]	100 to 5000 nM
COCCN(C)C(=O)c1cccc(-c2cnc(N)c(C(=O)Nc3ccccc3)n2)c1 [Compound I-67, 3-amino-6-(3-((2-methoxyethyl)(methyl)carbamoyl)phenyl)-N-phenylpyrazine-2-carboxamide]	10 to 100 nM
CN(C)CCN(C)C(=O)c1ccc(-c2cnc(N)c(C(=O)Nc3ccccc3)n2)cc1 [Compound I-68, 3-amino-6-(4-((2-(dimethylamino)ethyl)(methyl)carbamoyl)phenyl)-N-phenylpyrazine-2-carboxamide]	10 to 100 nM
Nc1ncc(-c2ccc(C(=O)NCC3CCOCC3)cc2)nc1C(=O)Nc1ccccc1 [Compound I-69, 3-amino-N-phenyl-6-(4-((tetrahydro-2H-pyran-4-yl)methylcarbamoyl)phenyl)pyrazine-2-carboxamide]	100 to 5000 nM
Nc1ncc(-c2ccc(C(=O)N3CCCC3)cc2)nc1C(=O)Nc1ccccc1 [Compound I-70, 3-amino-N-phenyl-6-(4-(pyrrolidine-1-carbonyl)phenyl)pyrazine-2-carboxamide]	10 to 100 nM
Nc1ncc(-c2ccc(C(=O)N3CCC(N4CCCC4)CC3)cc2)nc1C(=O)Nc1ccccc1 [Compound I-71, 3-amino-N-phenyl-6-(4-(4-(pyrrolidin-1-yl)piperidine-1-carbonyl)phenyl) pyrazine-2-carboxamide]	10 to 100 nM
CN1CCN(C(=O)c2ccc(-c3cnc(N)c(C(=O)Nc4ccccc4)n3)cc2)CC1 [Compound I-73, 3-amino-6-(4-(4-methylpiperazine-1-carbonyl)phenyl)-N-phenylpyrazine-2-carboxamide]	10 to 100 nM
Nc1ncc(-c2ccc(C(=O)N3CCNCC3)cc2)nc1C(=O)Nc1ccccc1 [Compound I-74, 3-amino-N-phenyl-6-(4-(piperazine-1-carbonyl)phenyl)pyrazine-2-carboxamide]	10 to 100 nM
Nc1ncc(-c2ccc(C(=O)N3CCCCC3)cc2)nc1C(=O)Nc1ccccc1 [Compound I-78, 3-amino-N-phenyl-6-(4-(piperidine-1-carbonyl)phenyl)pyrazine-2-carboxamide]	10 to 100 nM
CN(C)C1CCN(C(=O)c2ccc(-c3cnc(N)c(C(=O)Nc4ccccc4)n3)cc2)CC1 [Compound I-80, 3-amino-6-(4-(4-(dimethylamino)piperidine-1-carbonyl)phenyl)-N-phenylpyrazine-2-carboxamide]	10 to 100 nM
N#CCCN1CCN(C(=O)c2ccc(-c3cnc(N)c(C(=O)Nc4ccccc4)n3)cc2)CC1 [Compound I-81, 3-amino-6-(4-(4-(2-cyanoethyl)piperazine-1-carbonyl)phenyl)-N-phenylpyrazine-2-carboxamide]	≤ 10 nM
Nc1ncc(-c2cccnc2)nc1C(=O)Nc1cccc2cc[nH]c12 [Compound I-83, 3-amino-N-(1H-indol-7-yl)-6-(pyridin-3-yl)pyrazine-2-carboxamide]	100 to 5000 nM
COc1ccc(NC(=O)c2nc(-c3cccnc3)cnc2N)cc1 [Compound I-84, 3-amino-N-(4-methoxyphenyl)-6-(pyridin-3-yl)pyrazine-2-carboxamide]	100 to 5000 nM

The next lines start with the values.

Ki	Structure (SMILES)
100 to 5000 nM	CN1CCC(NC(=O)c2cccc(-c3cnc(N)c(C(=O)Nc4ccccc4)n3)c2)CC1 [Compound I-48, 3-amino-6-(3-(1-methylpiperidin-4-ylcarbamoyl)phenyl)-N-phenylpyrazine-2-carboxamide]
100 to 5000 nM	Nc1ncc(-c2cccc(C(=O)N3CCC(CO)CC3)c2)nc1C(=O)Nc1ccccc1 [Compound I-50, 3-amino-6-(3-(4-(hydroxymethyl)piperidine-1-carbonyl)phenyl)-N-phenylpyrazine-2-carboxamide]
100 to 5000 nM	Nc1ncc(-c2cccc(C(=O)N3CCNCC3)c2)nc1C(=O)Nc1ccccc1 [Compound I-53, 3-amino-N-phenyl-6-(3-(piperazine-1-carbonyl)phenyl) pyrazine-2-carboxamide]
100 to 5000 nM	Nc1ncc(-c2cccc(C(=O)NCCN3CCCC3)c2)nc1C(=O)Nc1ccccc1 [Compound I-54, 3-amino-N-phenyl-6-(3-(2-(pyrrolidin-1-yl)ethylcarbamoyl)phenyl)pyrazine-2-carboxamide]
100 to 5000 nM	Nc1ncc(-c2cccc(C(=O)N3CCC(N4CCCC4)CC3)c2)nc1C(=O)Nc1ccccc1 [Compound I-56, 3-amino-N-phenyl-6-(3-(4-(pyrrolidin-1-yl)piperidine-1-carbonyl)phenyl)pyrazine-2-carboxamide]
100 to 5000 nM	N#CCCN1CCN(C(=O)c2cccc(-c3cnc(N)c(C(=O)Nc4ccccc4)n3)c2)CC1 [Compound I-58, 3-amino-6-(3-(4-(2-cyanoethyl)piperazine-1-carbonyl)phenyl)-N-phenylpyrazine-2-carboxamide]
100 to 5000 nM	CN1CCN(C(=O)c2cccc(-c3cnc(N)c(C(=O)Nc4ccccc4)n3)c2)CC1 [Compound I-59, 3-amino-6-(3-(4-methylpiperazine-1-carbonyl)phenyl)-N-phenylpyrazine-2-carboxamide]
100 to 5000 nM	COC1CN(C(=O)c2cccc(-c3cnc(N)c(C(=O)Nc4ccccc4)n3)c2)C1 [Compound I-60, 3-amino-6-(3-(3-methoxyazetidine-1-carbonyl)phenyl)-N-phenylpyrazine-2-carboxamide]
100 to 5000 nM	NC(=O)C1CCN(C(=O)c2cccc(-c3cnc(N)c(C(=O)Nc4ccccc4)n3)c2)CC1 [Compound I-62, 3-amino-6-(3-(4-carbamoylpiperidine-1-carbonyl)phenyl)-N-phenylpyrazine-2-carboxamide]
100 to 5000 nM	Nc1ncc(-c2cccc(C(=O)N3CCCC3)c2)nc1C(=O)Nc1ccccc1 [Compound I-63, 3-amino-N-phenyl-6-(3-(pyrrolidine-1-carbonyl)phenyl)pyrazine-2-carboxamide]
100 to 5000 nM	Nc1ncc(-c2cccc(C(=O)N3CCC(O)C3)c2)nc1C(=O)Nc1ccccc1 (stereo not drawn) [Compound I-65, 3-amino-6-(3-(3-hydroxypyrrolidine-1-carbonyl)phenyl)-N-phenylpyrazine-2-carboxamide]
10 to 100 nM	Nc1ncc(-c2cccc(C(=O)NC3CCOCC3)c2)nc1C(=O)Nc1ccccc1 [Compound I-66, 3-amino-N-phenyl-6-(3-(tetrahydro-2H-pyran-4-ylcarbamoyl)phenyl) pyrazine-2-carboxamide]
10 to 100 nM	Nc1ncc(-c2ccc(C(=O)N3CCC3)cc2)nc1C(=O)Nc1ccccc1 [Compound I-72, 3-amino-6-(4-(azetidine-1-carbonyl)phenyl)-N-phenylpyrazine-2-carboxamide]
10 to 100 nM	Nc1ncc(-c2ccc(C(=O)N3CCC(O)C3)cc2)nc1C(=O)Nc1ccccc1 (stereo not drawn) [Compound I-75, 3-amino-6-(4-(3-hydroxypyrrolidine-1-carbonyl)phenyl)-N-phenylpyrazine-2-carboxamide]
10 to 100 nM	NC(=O)C1CCN(C(=O)c2ccc(-c3cnc(N)c(C(=O)Nc4ccccc4)n3)cc2)CC1 [Compound I-77, 3-amino-6-(4-(4-carbamoylpiperidine-1-carbonyl)phenyl)-N-phenylpyrazine-2-carboxamide]
10 to 100 nM	Nc1ncc(-c2ccc(C(=O)N3CCC(CO)CC3)cc2)nc1C(=O)Nc1ccccc1 [Compound I-79, 3-amino-6-(4-(4-(hydroxymethyl)piperidine-1-carbonyl)phenyl)-N-phenylpyrazine-2-carboxamide]
